# Experimental data from patent US20260374756A1, “HETEROCYCLIC COMPOUNDS AS INHIBITORS OF MONOACYLGLYCEROL LIPASE (MAGL)” (Hoffmann-La Roche Inc., priority 2022, published 2026).
# Target: T1, hMAGL (Homo sapiens, UniProt Q99685)
# T1 sequence (Q99685 1-303): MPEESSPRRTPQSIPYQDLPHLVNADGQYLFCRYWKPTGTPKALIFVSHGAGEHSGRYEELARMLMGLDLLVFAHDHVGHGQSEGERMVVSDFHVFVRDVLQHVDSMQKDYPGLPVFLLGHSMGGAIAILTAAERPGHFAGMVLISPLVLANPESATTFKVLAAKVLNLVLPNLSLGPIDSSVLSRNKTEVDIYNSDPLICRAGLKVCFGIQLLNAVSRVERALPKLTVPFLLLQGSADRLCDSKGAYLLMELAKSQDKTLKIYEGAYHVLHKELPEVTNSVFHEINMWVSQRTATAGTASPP
# Assay: 2-AG assay: MAGL inhibition, hydrolysis of 2-arachidonoylglycerol to arachidonic acid followed by mass spectrometry
# Type: biochemical
# Summary of the method: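 Read-out is LC-MS/MS of arachidonic acid released from 2-arachidonoylglycerol (8 μM final), normalised to d8-arachidonic acid internal standard after acetonitrile quench. Enzyme […] and compound were pre-mixed 15 min, then reacted 30 min, both at RT, in Tris/EDTA buffer with 0.01% Tween-20 and 2.5% DMSO.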
row,IC50 [nM],Structure (SMILES)
1,44.8,"O=C(N1CC2(CCN(Cc3nc(C(F)(F)F)cs3)CC2)C1)N1CC2(CC(n3cnc(C(F)(F)F)n3)C2)C1 [Example 176, [7-[[4-(trifluoromethyl)thiazol-2-yl]methyl]-2,7-diazaspiro[3.5]nonan-2-yl]-[6-[3-(trifluoromethyl)-1,2,4-triazol-1-yl]-2-azaspiro[3.3]heptan-2-yl]methanone]"
2,9.83,"O=C(N1CC2(CCN(Cc3nc(C(F)(F)F)cs3)CC2)C1)N1CC2(CC(n3cnc(C4CC4)n3)C2)C1 [Example 177, [6-(3-cyclopropyl-1,2,4-triazol-1-yl)-2-azaspiro[3.3]heptan-2-yl]-[7-[[4-(trifluoromethyl)thiazol-2-yl]methyl]-2,7-diazaspiro[3.5]nonan-2-yl]methanone]"
3,10.5,"O=C(N1CC2(CC(n3cnc(C(F)(F)F)n3)C2)C1)N1CC2(CN(Cc3sncc3C(F)(F)F)C2)C1 [Example 178, [6-[[4-(trifluoromethyl)isothiazol-5-yl]methyl]-2,6-diazaspiro[3.3]heptan-2-yl]-[6-[3-(trifluoromethyl)-1,2,4-triazol-1-yl]-2-azaspiro[3.3]heptan-2-yl]methanone]"
4,2,"O=C(N1CC2(CC(n3cnc(C4CC4)n3)C2)C1)N1CC2(CN(Cc3sncc3C(F)(F)F)C2)C1 [Example 179, [6-(3-cyclopropyl-1,2,4-triazol-1-yl)-2-azaspiro[3.3]heptan-2-yl]-[6-[[4-(trifluoromethyl)isothiazol-5-yl]methyl]-2,6-diazaspiro[3.3]heptan-2-yl]methanone]"
5,23.4,"O=C(N1CC2(CC(c3cc(C4CC4)n[nH]3)C2)C1)N1CC2(CN(Cc3cnn(C(F)(F)F)c3)C2)C1 [Example 180, [6-(3-cyclopropyl-1H-pyrazol-5-yl)-2-azaspiro[3.3]heptan-2-yl]-[6-[[1-(trifluoromethyl)pyrazol-4-yl]methyl]-2,6-diazaspiro[3.3]heptan-2-yl]methanone]"
6,133,"O=C(N1CC2(CC(n3cnc(C(F)(F)F)n3)C2)C1)N1CC2(CN(Cc3cnn(C(F)(F)F)c3)C2)C1 [Example 181, [6-[[1-(trifluoromethyl)pyrazol-4-yl]methyl]-2,6-diazaspiro[3.3]heptan-2-yl]-[6-[3-(trifluoromethyl)-1,2,4-triazol-1-yl]-2-azaspiro[3.3]heptan-2-yl]methanone]"
7,33.9,"O=C(N1CC2(CC(n3cnc(C4CC4)n3)C2)C1)N1CC2(CN(Cc3cnn(C(F)(F)F)c3)C2)C1 [Example 182, [6-(3-cyclopropyl-1,2,4-triazol-1-yl)-2-azaspiro[3.3]heptan-2-yl]-[6-[[1-(trifluoromethyl)pyrazol-4-yl]methyl]-2,6-diazaspiro[3.3]heptan-2-yl]methanone]"
8,28.4,"O=C(N1CC2(CC(n3cnc(C(F)(F)F)n3)C2)C1)N1CC2(CN(Cc3cc(C(F)(F)F)no3)C2)C1 [Example 183, [6-[[3-(trifluoromethyl)isoxazol-5-yl]methyl]-2,6-diazaspiro[3.3]heptan-2-yl]-[6-[3-(trifluoromethyl)-1,2,4-triazol-1-yl]-2-azaspiro[3.3]heptan-2-yl]methanone]"
9,6.68,"O=C(N1CC2(CC(n3cnc(C4CC4)n3)C2)C1)N1CC2(CN(Cc3cc(C(F)(F)F)no3)C2)C1 [Example 184, [6-(3-cyclopropyl-1,2,4-triazol-1-yl)-2-azaspiro[3.3]heptan-2-yl]-[6-[[3-(trifluoromethyl)isoxazol-5-yl]methyl]-2,6-diazaspiro[3.3]heptan-2-yl]methanone]"
10,3.44,"O=C(N1CC2(CC(c3cc(C4CC4)n[nH]3)C2)C1)N1CC2(CN(Cc3ncc(C(F)F)s3)C2)C1 [Example 185, [6-(3-cyclopropyl-1H-pyrazol-5-yl)-2-azaspiro[3.3]heptan-2-yl]-[6-[[5-(difluoromethyl)thiazol-2-yl]methyl]-2,6-diazaspiro[3.3]heptan-2-yl]methanone]"
11,84.1,O=C(N1CC2(CC(n3cnc(C4(O)CC4)n3)C2)C1)N1CC2(CN(Cc3ncc(C(F)F)s3)C2)C1 [Example 186]
12,15.3,"O=C(N1CC2(CC(n3cnc(C(F)(F)F)n3)C2)C1)N1CC2(CN(Cc3ncc(C(F)F)s3)C2)C1 [Example 187, [6-[[5-(difluoromethyl)thiazol-2-yl]methyl]-2,6-diazaspiro[3.3]heptan-2-yl]-[6-[3-(trifluoromethyl)-1,2,4-triazol-1-yl]-2-azaspiro[3.3]heptan-2-yl]methanone]"
13,3.94,"O=C(N1CC2(CC(n3cnc(C4CC4)n3)C2)C1)N1CC2(CN(Cc3ncc(C(F)F)s3)C2)C1 [Example 188, [6-(3-cyclopropyl-1,2,4-triazol-1-yl)-2-azaspiro[3.3]heptan-2-yl]-[6-[[5-(difluoromethyl)thiazol-2-yl]methyl]-2,6-diazaspiro[3.3]heptan-2-yl]methanone]"
14,50.1,"O=C(N1CC2(CC(n3cnc(C(F)(F)F)n3)C2)C1)N1CC2(CN(Cc3cc(C(F)(F)F)on3)C2)C1 [Example 189, [6-[[5-(trifluoromethyl)isoxazol-3-yl]methyl]-2,6-diazaspiro[3.3]heptan-2-yl]-[6-[3-(trifluoromethyl)-1,2,4-triazol-1-yl]-2-azaspiro[3.3]heptan-2-yl]methanone]"

# The remaining lines, values behind:
row,Structure (SMILES),IC50 [nM]
1,"Cn1ncc(CN2CC3(C2)CN(C(=O)N2CC4(CC(n5cnc(C(F)(F)F)n5)C4)C2)C3)c1C(F)(F)F [Example 164, [6-[[1-methyl-5-(trifluoromethyl)pyrazol-4-yl]methyl]-2,6-diazaspiro[3.3]heptan-2-yl]-[6-[3-(trifluoromethyl)-1,2,4-triazol-1-yl]-2-azaspiro[3.3]heptan-2-yl]methanone]",27.3
2,"Cn1ncc(CN2CC3(C2)CN(C(=O)N2CC4(CC(n5cnc(C6CC6)n5)C4)C2)C3)c1C(F)(F)F [Example 165, [6-(3-cyclopropyl-1,2,4-triazol-1-yl)-2-azaspiro[3.3]heptan-2-yl]-[6-[[1-methyl-5-(trifluoromethyl)pyrazol-4-yl]methyl]-2,6-diazaspiro[3.3]heptan-2-yl]methanone]",4.46
3,Cn1nc(C(F)(F)F)cc1CN1CC2(C1)CN(C(=O)N1CC3(CC(n4cnc(C(F)(F)F)n4)C3)C1)C2 [Example 166],20.3
4,"Cn1nc(C(F)(F)F)cc1CN1CC2(C1)CN(C(=O)N1CC3(CC(n4cnc(C5CC5)n4)C3)C1)C2 [Example 167, [6-(3-cyclopropyl-1,2,4-triazol-1-yl)-2-azaspiro[3.3]heptan-2-yl]-[6-[[2-methyl-5-(trifluoromethyl)pyrazol-3-yl]methyl]-2,6-diazaspiro[3.3]heptan-2-yl]methanone]",5.6
5,"CCn1nc(C(F)(F)F)cc1CN1CC2(C1)CN(C(=O)N1CC3(CC(n4cnc(C5(O)CC5)n4)C3)C1)C2 [Example 168, [6-[[2-ethyl-5-(trifluoromethyl)pyrazol-3-yl]methyl]-2,6-diazaspiro[3.3]heptan-2-yl]-[6-[3-(1-hydroxycyclopropyl)-1,2,4-triazol-1-yl]-2-azaspiro[3.3]heptan-2-yl]methanone]",45.6
6,CCn1nc(C(F)(F)F)cc1CN1CC2(C1)CN(C(=O)N1CC3(CC(n4cnc(C(F)(F)F)n4)C3)C1)C2 [Example 169],8.89
7,"CCn1nc(C(F)(F)F)cc1CN1CC2(C1)CN(C(=O)N1CC3(CC(n4cnc(C5CC5)n4)C3)C1)C2 [Example 170, [6-(3-cyclopropyl-1,2,4-triazol-1-yl)-2-azaspiro[3.3]heptan-2-yl]-[6-[[2-ethyl-5-(trifluoromethyl)pyrazol-3-yl]methyl]-2,6-diazaspiro[3.3]heptan-2-yl]methanone]",2.23
8,"O=C(N1CC2(CC(c3cc(C4CC4)n[nH]3)C2)C1)N1CC2(CN(Cc3nc(C(F)(F)F)no3)C2)C1 [Example 171, [6-(3-cyclopropyl-1H-pyrazol-5-yl)-2-azaspiro[3.3]heptan-2-yl]-[6-[[3-(trifluoromethyl)-1,2,4-oxadiazol-5-yl]methyl]-2,6-diazaspiro[3.3]heptan-2-yl]methanone]",9.95
9,"O=C(N1CC2(CC(n3cnc(C(F)(F)F)n3)C2)C1)N1CC2(CN(Cc3nc(C(F)(F)F)no3)C2)C1 [Example 172, [6-[[3-(trifluoromethyl)-1,2,4-oxadiazol-5-yl]methyl]-2,6-diazaspiro[3.3]heptan-2-yl]-[6-[3-(trifluoromethyl)-1,2,4-triazol-1-yl]-2-azaspiro[3.3]heptan-2-yl]methanone]",55
10,"O=C(N1CC2(CC(n3cnc(C4CC4)n3)C2)C1)N1CC2(CN(Cc3nc(C(F)(F)F)no3)C2)C1 [Example 173, [6-(3-cyclopropyl-1,2,4-triazol-1-yl)-2-azaspiro[3.3]heptan-2-yl]-[6-[[3-(trifluoromethyl)-1,2,4-oxadiazol-5-yl]methyl]-2,6-diazaspiro[3.3]heptan-2-yl]methanone]",11.9
11,"O=C(N1CC2(CCN(Cc3nc(C(F)(F)F)cs3)CC2)C1)N1CC2(CC(c3cc(C4CC4)n[nH]3)C2)C1 [Example 174, [6-(3-cyclopropyl-1H-pyrazol-5-yl)-2-azaspiro[3.3]heptan-2-yl]-[7-[[4-(trifluoromethyl)thiazol-2-yl]methyl]-2,7-diazaspiro[3.5]nonan-2-yl]methanone]",4.84
12,"O=C(N1CC2(CCN(Cc3nc(C(F)(F)F)cs3)CC2)C1)N1CC2(CC(n3cnc(C4(O)CC4)n3)C2)C1 [Example 175, [6-[3-(1-hydroxycyclopropyl)-1,2,4-triazol-1-yl]-2-azaspiro[3.3]heptan-2-yl]-[7-[[4-(trifluoromethyl)thiazol-2-yl]methyl]-2,7-diazaspiro[3.5]nonan-2-yl]methanone]",81.2
